# Source: BindingDB's records for doi:10.1007/bf00165806 (UniversitÄT Heidelberg, 1987)
# Experiments:
# Adenosine receptor A2a = Adenosine receptor A2a (Homo sapiens, UniProt P29274)
# Adenosine receptor A1 = target: T1, Adenosine receptor A1 (Bos taurus, UniProt P28190)
# T1 sequence (P28190 whole entry): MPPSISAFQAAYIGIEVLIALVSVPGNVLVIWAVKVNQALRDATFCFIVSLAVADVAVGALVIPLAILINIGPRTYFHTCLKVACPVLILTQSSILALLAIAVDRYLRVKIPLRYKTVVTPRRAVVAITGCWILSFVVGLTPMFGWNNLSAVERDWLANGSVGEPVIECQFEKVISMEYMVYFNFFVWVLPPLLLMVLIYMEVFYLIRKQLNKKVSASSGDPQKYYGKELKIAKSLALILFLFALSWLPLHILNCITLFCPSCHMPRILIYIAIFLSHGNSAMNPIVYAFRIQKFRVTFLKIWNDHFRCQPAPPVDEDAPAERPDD
# Adenosine receptor A2a, sequence (P29274 whole entry): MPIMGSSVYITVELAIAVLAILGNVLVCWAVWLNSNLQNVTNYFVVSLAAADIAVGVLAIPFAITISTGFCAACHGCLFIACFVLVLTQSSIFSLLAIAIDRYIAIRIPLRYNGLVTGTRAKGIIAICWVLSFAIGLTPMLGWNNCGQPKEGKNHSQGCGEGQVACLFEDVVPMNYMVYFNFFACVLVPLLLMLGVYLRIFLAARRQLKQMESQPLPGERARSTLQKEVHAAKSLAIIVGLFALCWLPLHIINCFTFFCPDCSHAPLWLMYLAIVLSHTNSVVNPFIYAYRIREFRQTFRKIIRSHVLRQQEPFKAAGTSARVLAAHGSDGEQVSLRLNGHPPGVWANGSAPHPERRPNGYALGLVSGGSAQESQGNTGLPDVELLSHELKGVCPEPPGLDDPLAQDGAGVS
Ki (Adenosine receptor A2a) [nM],Compound,Ki (Adenosine receptor A1) [nM]
210,"CCn1c(=O)c2[nH]c(-c3ccccc3)nc2n(CC)c1=O [1,3-Diethyl-8-phenyl-3,7-dihydro-purine-2,6-dione]",
,CCCn1c(=O)c2[nH]c(C3CCCC3)nc2n(CCC)c1=O [DPCPX],0.07
,"CCCn1c(=O)c2[nH]c(-c3ccc(OCC(=O)NCCN)cc3)nc2n(CCC)c1=O [N-(2-Amino-ethyl)-2-[4-(2,6-dioxo-1,3-dipropyl-2,3,6,9-tetrahydro-1H-purin-8-yl)-phenoxy]-acetamide]",0.08
